According to US20150315202A1, “CHLORIN DERIVATIVE USEFUL IN PHOTODYNAMIC THERAPY AND DIAGNOSIS” (RMW CHO GROUP LIMITED, priority 2012, published 2015):
“Also recorded” adds a separate entry of the source.

Experiments:
[1] = Fluorescence spectra and fluorescence quantum yield (reference TPPS); format: physicochemical
Procedure: Absorption spectra were recorded using computerized spectrophotometers Hitachi 3400 (Japan) and SF-2000 (Russia). Fluorescence spectra were measured with a computerized spectrofluorimeter Perkin-Elmer MPF-44B. 10 mm wide quartz cuvettes were used for absorption and fluorescence measurements. Fluorescence was detected at a right angle to the excitation beam. The spectral bandwidth of the monochromator was 3 nm. […] The fluorescence quantum yields (ΦF) were determined using as a reference, solutions of TPPS (m-tetrakis(p-sulfonatophenyl)porphine) in ethanol. According to the literature, the most likely fluorescence quantum yield of TPPS in air-saturated water and ethanol is equal to 0.08 (K. Kalyanasundaram and M. Neumann-Spallart, Photophysical and redox properties of water soluble porphyrins in aqueous media, J. Phys. Chem., 1982, 86, 5163-5169; and A. T. Gradyushko, A. N. Sevchenko, K. N. Solovyov and M. P. Tsvirko, Energetics of photophysical processes in chlorophyll-like molecules, Photochem. Photobiol., 1970, 11, 387-400). The fluorescence of the samples was excited by the monochromatic light corresponding to the maximum of the Soret bands: 415 nm for TPPS in ethanol and 413 nm for TPPS in water, and 403 nm for chlorin e4 sodium in water and ethanol. The monochromator bandwidth was 3 nm. The fluorescence quantum yields (ΦF) were calculated using the following equation: […]
where (ΦTPP is the quantum yield of TPPS fluorescence, Sc is the square under the fluorescence spectrum of the chlorin e4 sodium sample, STPP is the square under the fluorescence spectrum of TPPS, and Dc and DTPP are absorbance (optical density) of the chlorin e4 sodium and TPPS respectively at the excitation wavelengths. The obtained results were collated using relative units of intensity of the excited light at the excitation wavelengths. The intensities of the monochromatic light were measured using a calibrated silicon detector from Optical Power Meter System ThorLabs (Karlsfeld, Germany).

[2] = tested on: invasive ductile breast cancer and lymph node metastases; experiment: In vivo studies Example 1: patient, oral chlorin e4 sodium plus laser and LED light; parameters: species or system human
Procedure: A patient with invasive ductile breast cancer and lymph node metastases in the right arm pit, was treated successfully. Prior to treatment a large cancer mass in the right breast was observed and a small cancer mass in the right arm pit. The treatment consisted of three courses. For each course, five doses of 62.5-187.5 mg chlorin e4 sodium were administered orally over the course of eight days. 24-48 hours after each oral dose of chlorin e4 sodium, the patient was treated with laser and LED light having a wavelength of 660 nm and 760 nm.
Subsequently the patient was treated with two further courses. Again, for each course, five doses of 62.5-187.5 mg chlorin e4 sodium were administered orally over the course of eight days. 24-48 hours after each oral dose of chlorin e4 sodium, the patient was treated with laser and LED light having a wavelength of 660 nm and 760 nm. Additionally an interstitial light treatment using a fine needle was performed on the breast with an optical fibre laser having a wavelength of 660 nm and 760 nm.

[3] = tested on: stage IVB Hodgkin's lymphoma with metastases; experiment: In vivo studies Example 4: patient, oral chlorin e4 sodium plus laser and LED light; parameters: species or system human
Procedure: A patient with stage IVB Hodgkin's lymphoma with metastases in the liver, lymphatic system, spleen, lung and bones, was treated successfully. The treatment consisted of three courses. For each course, five doses of 62.5-187.5 mg chlorin e4 sodium were administered orally over the course of eight days. 24-48 hours after each oral dose of chlorin e4 sodium, the patient was treated with laser and LED light having a wavelength of 660 nm and 760 nm.
Subsequently the patient was treated with a further two courses. Again, for each course, five doses of 62.5-187.5 mg chlorin e4 sodium were administered orally over the course of eight days. 24-48 hours after each oral dose of chlorin e4 sodium, the patient was treated with laser and LED light having a wavelength of 660 nm and 760 nm.

[4] = tested on: lung cancer; experiment: In vivo studies Example 5: patient, oral chlorin e4 sodium plus laser and LED light; parameters: species or system human; settings: three months after one course
Procedure: A patient with lung cancer was treated successfully. The treatment consisted of one course of five doses of 62.5-187.5 mg chlorin e4 sodium administered orally over the course of eight days. 24-48 hours after each oral dose of chlorin e4 sodium, the patient was treated with laser and LED light having a wavelength of 660 nm and 760 nm.

[5] = tested on: lung cancer with metastases in the lymph nodes and sacrum bone; experiment: In vivo studies Example 11: patient, oral chlorin e4 sodium plus laser and LED light; parameters: species or system human
Procedure: A patient with lung cancer with metastases in the lymph nodes and sacrum bone, was treated successfully. […] The treatment consisted of five courses. For each course, five doses of 62.5-187.5 mg chlorin e4 sodium were administered orally over the course of eight days. 24-48 hours after each oral dose of chlorin e4 sodium, the patient was treated with laser and LED light having a wavelength of 660 nm and 760 nm. Additionally, for two of the treatment courses, an interstitial light treatment using a fine needle was performed on the sacrum bone with an optical fibre laser having a wavelength of 660 nm and 760 nm. Additionally, mesothelium bone growth therapy was administered for the last two treatment courses.

[6] = tested on: advanced non-small cell lung cancer; experiment: Clinical study with patients suffering from advanced non-small cell lung cancer; format: in vivo, human
Procedure: Through pathology or cytology diagnosis, 66 advanced non-small cell lung cancer patients were selected and randomly divided into two groups. Group A had 32 patients who were treated with chlorin e4 sodium. Group B had 34 patients who were treated with both chemotherapy and radiotherapy.
For group A, chlorin e4 sodium was administered at a dosage of 2 mg per kilogram of body weight, with two thirds administered by inhalation and one third administered orally. After the irradiation target(s) had been determined, an optical fibre for laser treatment purposes was guided into the lung tumor(s) via an interstitial procedure. Irradiation light intensity was 200 J/cm^2, irradiation power was 1,000 mW, and irradiation lasted for eight to ten minutes. Laser irradiation into the tumor was two to five centimeters in depth. Irradiation was either performed phase by phase (sub-paragraph treatment) based on tumor size or performed repeatedly.
For group B, for the radiotherapy, a 15 MV X-ray radiation therapy irradiation field covered primary lung tumor lesion(s) and mediastinal lymphatic drainage area, with a dosage of 65-70 Gy, administered on every first day in a week of radiotherapy. For the chemotherapy, 20 mg cisplatin was administered by intravenous application.

[7] = group A (32 patients): chlorin e4 sodium 2 mg/kg inhalation and oral + interstitial laser, group B (34 patients): cisplatin 20 mg iv + radiotherapy

C=Cc1c(C)c2cc3nc(c(C)c4[nH]c(cc5nc(cc1[nH]2)C(C)=C5CC)c(C)c4C(=O)O)[C@@H](CCC(=O)O)[C@@H]3C [chlorin e4 sodium]
Fluorescence quantum yield (ranking among solvents) ([1]; SDS containing water): slightly less | Fluorescence quantum yield (ranking among solvents) ([1]; ethanol): highest | Fluorescence quantum yield (ranking among solvents) ([1]; water without SDS): smallest; also recorded: still high | Response in the breast and lymph nodes (PET/CT) ([2]; after the fifth and final treatment course): complete response | Reduction in size of large cancer mass in the breast (doppler ultrasound) ([2]; after the fourth treatment course): about 25% | Size of large cancer mass in the breast (doppler ultrasound) ([2]; after three courses): had not reduced in size | Vascularity of large cancer mass in the breast (doppler ultrasound) ([2]; after three courses): almost no vascularity | Vascularity of smaller lymph node cancer mass (doppler ultrasound) ([2]; after three courses): almost no vascularity | Size of smaller lymph node cancer mass ([2]; after three courses, reduced from 1.9 cm): 1 cm | Reactions at the breast tumour site ([2]; inflammatory response after each course, burning sensation towards the end of the second course): inflammatory response; also recorded: burning sensation | Patient status ([2]; two years and three months after starting, five months after completion of treatment): alive and well | Response (PET/CT) ([3]; after a further two courses): good treatment response | Tumours in areas treated with light (CT) ([3]; after three courses): some tumours disappeared altogether and some tumours reduced in size | Survival time ([3]; life expectancy before treatment only two weeks): two years and two months | CT scan finding [4]: tumour breakdown | Patient status ([5]; 10 months after starting, four months after completion of treatment): alive and well | Response (PET/CT) ([5]; five courses, interstitial light on sacrum bone, mesothelium bone growth therapy for last two courses): complete response | One year survival rate [6, 7]: 93.75% | Two years survival rate [6, 7]: 68.75% | Combined complete and partial remission rate ([6]; group A: chlorin e4 sodium 2 mg/kg + interstitial laser, group B: cisplatin 20 mg iv + radiotherapy): 56.20%
